From ChEMBL document CHEMBL4043254, “Discovery of potential antiausterity agents from the Japanese cypress Chamaecyparis obtusa” (2017) come the findings set out here.

Active and inactive are the calls of the source. No cut-off for these calls is given here. Bounds are passed on as bounds.

In assay [1] the test system is PANC-1. The assay is described as follows: Antiausteritic activity against human PANC1 cells in nutrient-deprived medium measured after 24 hrs by WST8 assay. The assay is classed as functional. (Formazan colour is commonly taken as a measure of viable cells.)
In assay [2] the test system is MIA PaCa-2. The assay is described as follows: Antiausteritic activity against human MIAPaCa2 cells in nutrient-deprived medium measured after 24 hrs by WST8 assay. Type of assay: functional.
Assay [3] is described as follows: Antiausteritic activity against human KLM1 cells in nutrient-deprived medium measured after 24 hrs by WST8 assay. Type of assay: functional.
In assay [4] the test system is CAPAN-1. In words: Antiausteritic activity against human Capan1 cells in nutrient-deprived medium measured after 24 hrs by WST8 assay. Type of assay: functional.
In assay [5] the test system is PSN1. In words: Antiausteritic activity against human PSN1 cells in nutrient-deprived medium measured after 24 hrs by WST8 assay. The assay is classed as functional.
Assay [6] deals with PANC-1. In words: Antiausteritic activity against human PANC1 cells assessed as decrease in cell index under nutrient-deprived medium measured at 15 secs interval for 24 hrs by real time cell analysis. Type of assay: functional, cell-based.
Assay [7] has as its system PANC-1. In words: Induction of morphological changes in human PANC1 cells assessed as increase in dead cells after 24 hrs by ethidium bromide/acridine orange staining based inverted microscopic analysis. Type of assay: functional, cell-based.
Assay [8] has as its system PANC-1. In words: Antiausteritic activity against human PANC1 cells assessed as cell death at 50 uM under nutrient-deprived medium measured at 5 mins interval for 8 hrs by live cell imaging analysis. Type of assay: functional, cell-based.
For assay [9], the system named is PANC-1. The assay is described as follows: Induction of morphological changes in human PANC1 cells assessed as nuclear fragmentation at 25 to 50 uM after 24 hrs by Hoechst 33342/propidium iodide staining based inverted microscopic analysis. Type of assay: functional, cell-based.
The subject of assay [10] is PANC-1. The assay is described as follows: Induction of autophagy in human PANC1 cells assessed as increase in LC3-2 expression after 3 hrs under nutrient deprived medium by Western blot analysis. The assay is classed as functional, cell-based. Background: A western blot detects proteins with antibodies after separation by electrophoresis.
For assay [11], the system named is PANC-1. In words: Antiausteritic activity against human PANC1 cells assessed as decrease in cell index by measuring cell death at 50 uM under nutrient-deprived medium measured at 15 secs interval for 4 hrs by real time cell analysis. Type of assay: functional, cell-based.
In assay [12] the target is RAC-alpha serine/threonine-protein kinase (Homo sapiens) (UniProt P31749). The assay is described as follows: Inhibition of AKT in human PANC1 cells assessed as reduction in mTOR phosphorylation at Ser2448 residue measured after 3 hrs under nutrient deprived condition by Western blot analysis. Type of assay: cell-based.
RAC-alpha serine/threonine-protein kinase (Homo sapiens), sequence (P31749 whole entry): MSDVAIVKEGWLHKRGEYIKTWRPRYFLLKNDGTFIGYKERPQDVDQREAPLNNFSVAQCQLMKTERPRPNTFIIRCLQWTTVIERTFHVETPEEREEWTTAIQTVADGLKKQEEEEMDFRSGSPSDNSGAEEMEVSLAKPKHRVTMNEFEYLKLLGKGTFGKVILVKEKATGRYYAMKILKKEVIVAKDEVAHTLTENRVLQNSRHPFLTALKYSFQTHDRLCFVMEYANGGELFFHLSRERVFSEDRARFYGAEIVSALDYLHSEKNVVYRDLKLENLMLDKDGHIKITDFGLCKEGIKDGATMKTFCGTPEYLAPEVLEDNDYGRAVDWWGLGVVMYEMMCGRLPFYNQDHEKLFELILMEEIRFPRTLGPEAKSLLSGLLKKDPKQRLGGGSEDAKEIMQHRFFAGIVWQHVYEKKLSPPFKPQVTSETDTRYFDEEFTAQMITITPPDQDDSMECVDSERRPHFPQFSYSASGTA
Assay [13] deals with PANC-1. In words: Antiausteritic activity against human PANC1 cells assessed as alterations in cell morphology at 50 uM under nutrient-deprived medium measured at 5 mins interval for 2 hrs by live cell imaging analysis. The assay is classed as functional, cell-based.
Assay [14] deals with PANC-1. The assay is described as follows: Induction of morphological changes in human PANC1 cells assessed as increase in dead cells after 24 hrs by Hoechst 33342/propidium iodide staining based inverted microscopic analysis. Type of assay: functional, cell-based.
In assay [15] the target is RAC-alpha serine/threonine-protein kinase (Homo sapiens) (UniProt P31749). In words: Inhibition of AKT phosphorylation at Ser473 residues in human PANC1 cells at 50 uM measured within 3 hrs under nutrient deprived condition by Western blot analysis. Type of assay: cell-based.
Assay [16] deals with PANC-1. In words: Antiausteritic activity against human PANC1 cells assessed as reduction in cell migration at 50 uM under nutrient-deprived medium measured at 5 mins interval for 30 mins by live cell imaging analysis. The assay is classed as functional, cell-based.
Assay [17] addresses RAC-alpha serine/threonine-protein kinase (Homo sapiens) (UniProt P31749). The assay is described as follows: Inhibition of AKT in human PANC1 cells assessed as reduction in mTOR phosphorylation at Ser2448 residue at 50 uM measured after 3 hrs under nutrient deprived condition by Western blot analysis. Type of assay: cell-based.
For assay [18], the system named is PANC-1. The assay is described as follows: Antiausteritic activity against human PANC1 cells assessed as normalized cell index by measuring cell growth inhibition at 25 uM under nutrient-deprived medium measured at 15 secs interval for 24 hrs by real time cell analysis. The assay is classed as functional, cell-based.
In assay [19] the test system is PANC-1. In words: Induction of autophagy in human PANC1 cells assessed as increase in LC3-1 expression after 3 hrs under nutrient deprived medium by Western blot analysis. Type of assay: functional, cell-based.

As to `CC1=C[C@@H]2[C@@H](CC1)[C@](C)(O)CC[C@H]2C(C)C`, the PC50 in assay [1] was 46 µM; in [2] it was 49.1 µM; in [3], 69.7 µM; in assay [4] it was over 100 µM; in assay [5] it was over 100 µM.

In the case of `CC1=C[C@@H]2[C@@H](CC1)[C@@](C)(O)CC[C@H]2C(C)C` [T-CADINOL], the Activity result in assay [6], in [7], in assay [10], in [14] and in assay [19] was “Dose-dependent effect” in each case. Further, the result in assay [8], in assay [9], in [11], in assay [13], in [16] and in [18] was Active. Moreover, the inhibition result in [12] is “Dose-dependent effect”; in assay [17], 100%. For the same molecule, the PC50 in assay [3] was 45.1 µM. In [15], the inhibition result was “Active”.

Regarding `O=C1OC[C@H](Cc2ccc3c(c2)OCO3)[C@H]1Cc1ccc2c(c1)OCO2` [HINOKININ], the PC50 came out at 64.1 µM in [1]; 21.3 µM in assay [2]; 92.5 µM in assay [3]; 50.1 µM in assay [4]; 60.1 µM in assay [5].

In the case of `C/C1=C/C(=O)CC[C@@](C)(O)CC[C@@H](C(C)C)C1=O`, the PC50 in [1] is over 100 µM; in [2], over 100 µM; in assay [3] it was 98.1 µM; in [4], over 100 µM; in assay [5] it was 67.7 µM.

Consider `CC(C)[C@@H]1CC[C@](C)(O)[C@@H]2CCC(CO)=C[C@H]21`, for which the PC50 in assay [1] was 82.1 µM; in assay [2], 29.8 µM; in [3], 77.2 µM; in assay [4], over 100 µM; in assay [5] it was 50.6 µM.

As for `CC1=C[C@@H]2[C@@H](CC1=O)[C@@](C)(O)CC[C@H]2C(C)C`, the PC50 in assay [1], in [2], in assay [3], in assay [4] and in assay [5] was over 100 µM throughout.

As to `CC(=O)OCC1=C[C@@H]2[C@@H](CC1)[C@@](C)(O)CC[C@H]2C(C)C`, the PC50 is 35.7 µM in assay [2], 69 µM in assay [3], over 100 µM in assay [4] and over 100 µM in assay [5].

In the case of `CC(C)[C@@H]1CC[C@@](C)(O)[C@@H]2CCC(CO)=C[C@H]21`, the PC50 in assay [1] is over 100 µM; in [2], over 100 µM; in assay [3], 95.3 µM; in [4], over 100 µM; in assay [5], over 100 µM.

Regarding `COc1cc(C[C@H]2C(=O)OC[C@@H]2Cc2ccc(OC)c(OC)c2)ccc1O` [ARCTIGENIN], the PC50 in assay [1] amounted to 0.5 µM; in assay [2] it was 1.9 µM; in assay [3] it was 0.8 µM; in [4], 1.2 µM; in assay [5], 0.7 µM.

What is called inhibition is the change of the read-out against control, counted positive when it falls.
